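Tested at 5 concentrations; 48 h exposure; 96-well plates; endpoints linearly interpolated, else capped at highest concentration. GI50: concentration for 50% inhibition of growth.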 Calls of active or inactive are those of the source. No stated cut-off is given here; in the data, active = GI50 up to about 1.1 µM and inactive = higher.
Tests used:
Assay in all cases: NCI-60 cell line screen, 48 h
KM12 = system: KM12
HCT-116 = system: HCT-116
RXF 393 = system: RXF 393
MCF7 = system: MCF7
ACHN = system: ACHN
SK-OV-3 = system: SK-OV-3
DU-145 = system: DU-145
IGROV-1 = system: IGROV-1
SW-620 = system: SW-620
U-251 = system: U-251
MDA-MB-435 = system: MDA-MB-435
CCRF-CEM = system: CCRF-CEM
MDA-N = system: MDA-N
SF-539 = system: SF-539
UACC-62 = system: UACC-62
NCI-H226 = system: NCI-H226
OVCAR-5 = system: OVCAR-5
MDA-MB-231 = system: MDA-MB-231
SK-MEL-28 = system: SK-MEL-28

Measured: GI50

CCOC(=O)CCC(C(=O)OCC)n1nnc2cc(Nc3c(C)[n+]([O-])c4ccc(Cl)cc4[n+]3[O-])ccc21 (configuration not stated)
inactive: KM12 > 100 µM | HCT-116 69.5 µM | RXF 393 57.9 µM | MCF7 34.2 µM | ACHN 60.7 µM | SK-OV-3 > 100 µM | DU-145 > 100 µM | IGROV-1 > 100 µM | SW-620 > 100 µM | U-251 80 µM | MDA-MB-435 > 100 µM | CCRF-CEM 39.4 µM | MDA-N > 100 µM | SF-539 82.4 µM | UACC-62 63.5 µM | NCI-H226 26.9 µM | OVCAR-5 > 100 µM

CC(=O)N(O)c1ccc(-c2nc3ccccc3s2)cc1
inactive: KM12 38.2 µM | HCT-116 68.5 µM | MDA-MB-231 49.7 µM | RXF 393 61.8 µM | ACHN 47.5 µM | DU-145 > 100 µM | IGROV-1 32.9 µM | SW-620 > 100 µM | U-251 87.9 µM | MDA-MB-435 86.9 µM | SK-MEL-28 80.7 µM | CCRF-CEM > 100 µM | MDA-N 77.6 µM | UACC-62 > 100 µM | NCI-H226 24.2 µM | OVCAR-5 > 100 µM

CN(N)/N=N/c1[nH]cnc1[N+](=O)[O-]
inactive: KM12 > 100 µM | HCT-116 34.8 µM | MDA-MB-231 21.7 µM | RXF 393 > 100 µM | ACHN > 100 µM | SK-OV-3 > 100 µM | DU-145 > 100 µM | IGROV-1 > 100 µM | SW-620 81.1 µM | U-251 > 100 µM | MDA-MB-435 > 100 µM | SK-MEL-28 > 100 µM | CCRF-CEM 5.01 µM | MDA-N 51.2 µM | SF-539 46.6 µM | UACC-62 > 100 µM | NCI-H226 > 100 µM | OVCAR-5 > 100 µM

CN/N=C(/C=C/c1ccccc1)C(C)C
inactive: KM12 > 100 µM | HCT-116 > 100 µM | RXF 393 > 100 µM | MCF7 > 100 µM | ACHN > 100 µM | SK-OV-3 > 100 µM | DU-145 > 100 µM | IGROV-1 > 100 µM | SW-620 > 100 µM | U-251 > 100 µM | MDA-MB-435 > 100 µM | SK-MEL-28 > 100 µM | CCRF-CEM > 100 µM | MDA-N > 100 µM | SF-539 > 100 µM | UACC-62 > 100 µM | NCI-H226 > 100 µM | OVCAR-5 > 100 µM

CCCCN(CCCC)CC(O)c1cc(-c2ccc(Cl)c(Cl)c2)nc2c(Cl)cc(Cl)cc12 (configuration not stated)
inactive: HCT-116 > 100 µM | MDA-MB-231 7.64 µM | MCF7 6.84 µM | ACHN 89.1 µM | SK-OV-3 > 100 µM | DU-145 > 100 µM | IGROV-1 > 100 µM | SW-620 15.6 µM | U-251 > 100 µM | MDA-MB-435 > 100 µM | SK-MEL-28 > 100 µM | CCRF-CEM 65.3 µM | MDA-N > 100 µM | SF-539 > 100 µM | UACC-62 > 100 µM | OVCAR-5 > 100 µM

CC(C(=O)N1C(=O)N(C(=O)[C@H](C)C(O)c2ccccc2)[C@H](c2ccccc2)[C@H]1c1ccccc1)[C@@H](O)c1ccccc1 (some centres not stated)
inactive: KM12 31.2 µM | HCT-116 34.2 µM | MDA-MB-231 19.5 µM | MCF7 26.6 µM | ACHN 30.5 µM | SK-OV-3 83.6 µM | DU-145 50.5 µM | IGROV-1 12 µM | SW-620 45.2 µM | U-251 35.9 µM | MDA-MB-435 26.2 µM | SK-MEL-28 > 100 µM | MDA-N 20 µM | SF-539 22.2 µM | UACC-62 14.6 µM | NCI-H226 27 µM | OVCAR-5 25.2 µM
